The numbers were not newly measured in patent publication US20140363396A1, “ONCE DAILY TREATMENT OF HEPATITIS C WITH RIBAVIRIN AND TARIBAVIRIN” (priority 2012, published 2014), which cites them from elsewhere.

The conditions of data set [1]: compared with ribavirin.
For data set [2] the following is noted: in vivo.
The target in another data set is T1, HCV NS3/4A protease (Hepatitis C virus genotype 1a, UniProt P27958).
T1 construct: NS3 consists of an N-terminal serine protease domain and a C-terminal helicase domain
T1 sequence (P27958 1027-1657 limits assumed): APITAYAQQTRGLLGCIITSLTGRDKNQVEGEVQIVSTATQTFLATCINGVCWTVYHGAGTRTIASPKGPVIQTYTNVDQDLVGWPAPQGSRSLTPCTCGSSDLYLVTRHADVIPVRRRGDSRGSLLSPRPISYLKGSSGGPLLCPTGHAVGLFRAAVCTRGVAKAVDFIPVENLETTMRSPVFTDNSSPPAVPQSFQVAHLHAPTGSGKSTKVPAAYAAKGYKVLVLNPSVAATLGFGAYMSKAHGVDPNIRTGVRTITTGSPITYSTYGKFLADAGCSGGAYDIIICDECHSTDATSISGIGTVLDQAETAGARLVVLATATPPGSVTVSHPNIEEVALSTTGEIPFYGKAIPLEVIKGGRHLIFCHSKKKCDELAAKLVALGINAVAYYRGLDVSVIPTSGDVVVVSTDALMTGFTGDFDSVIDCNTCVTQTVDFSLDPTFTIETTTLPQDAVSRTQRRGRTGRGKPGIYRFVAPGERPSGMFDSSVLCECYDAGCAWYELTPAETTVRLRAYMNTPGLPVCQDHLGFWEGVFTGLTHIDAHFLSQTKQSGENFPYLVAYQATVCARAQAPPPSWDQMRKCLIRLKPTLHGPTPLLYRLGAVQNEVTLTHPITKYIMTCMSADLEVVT
T1 sequence (P27958 1658-1711 partner limits assumed): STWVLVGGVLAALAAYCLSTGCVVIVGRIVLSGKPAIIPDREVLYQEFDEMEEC
Particulars: R-diastereomer compared with telaprevir.

The conditions of data set [3]: in vivo. This is another data set of the same source.

As to `CC(C)(C)NC(=O)N[C@H](C(=O)N1C[C@H]2[C@@H]([C@H]1C(=O)NC(CC1CCC1)C(=O)C(N)=O)C2(C)C)C(C)(C)C` (stereo partly drawn) [Boceprevir, (1R,5S)—N-[3-Amino-1-(cyclobutylmethyl)-2,3-dioxopropyl]-3-[2(S)-[[[(1,1-dimethylethyl)amino]carbonyl]amino]-3,3-dimethyl-1-oxobutyl]-6,6-dimethyl-3-azabicyclo[3.1.0]hexan-2(S)-carboxamide], the solubility in water entry is given as “slightly soluble”. Also, the “solubility in methanol, ethanol and isopropanol” value (methanol, ethanol and isopropanol) is “freely soluble”.

For the compound `NC(=O)c1ncn([C@H]2O[C@@H](CO)[C@H](O)[C@@H]2O)n1` [Levovirin, 1-β-L-ribofuranosyl-1H-1,2,4-triazole-3-carboxamide], the toxicity result in data set [1] is on record as “less toxic”.

Consider `NC(=O)c1ncn([C@@H]2O[C@H](CO)[C@@H](O)[C@H]2O)n1` [Ribavirin, 1-β-D-ribofuranosyl-1H-1,2,4-triazole-3-carboxamide], for which the solubility in water entry is recorded as “freely soluble”. Further, the “solubility in anhydrous alcohol” value (anhydrous alcohol) is recorded as “slightly soluble”. For `CCC[C@@H](NC(=O)[C@@H]1[C@H]2CCC[C@H]2CN1C(=O)[C@@H](NC(=O)[C@@H](NC(=O)c1cnccn1)C1CCCCC1)C(C)(C)C)C(=O)C(=O)NC1CC1` [VRT-127394], the “metabolite of telaprevir in plasma” value in data set [2] is “major metabolite in plasma”. The “fold less potent than telaprevir” value on HCV NS3/4A protease is “approximately 30 fold”. As to `N=C(N)c1ncn([C@@H]2O[C@H](CO)[C@@H](O)[C@H]2O)n1` [taribavirin, 1-β-D-ribofuranosyl-1H-1,2,4-triazole-3-carboxamidine], the anemia entry in data set [3] is recorded as “significantly less anemia”.
